Molecules are shown by their SMILES.

Assay [1] deals with T1, NEP enzyme (Homo sapiens, UniProt P08473).
T1 construct: purchased R&D Systems, Minneapolis, Minn; 1182-ZN
As to the kind of experiment: In vitro NEP enzyme inhibition assay (Assay 2). In kind it is biochemical. Conditions: fluorogenic peptide substrate; species of NEP (human or rat) not given; read-out: pIC50 for the NEP enzyme (converted). The procedure: The inhibitory activities of compounds at human and rat NEP and human ACE were determined using in vitro assays as described below.
Rat NEP was prepared from the kidneys of adult Sprague Dawley rats. Whole kidneys were washed in cold PBS and brought up in ice-cold lysis buffer (1% Triton X-114, 150 mM NaCl, 50 mM Tris pH 7.5; Bordier (1981) J. Biol. Chem. 256:1604-1607) in a ratio of 5 mL of buffer for every gram of kidney. Samples were homogenized using a polytron hand held tissue grinder on ice. Homogenates were centrifuged at 1000×g in a swinging bucket rotor for 5 minutes at 3° C. The pellet was resuspended in 20 mL of ice cold lysis buffer and incubated on ice for 30 minutes. […] Protein concentrations were quantitated using a BCA detection system with BSA as a standard. […]
The assays were performed in 384-well white opaque plates at room temperature using the respective fluorogenic peptides at a concentration of 10 μM in assay buffer (50 mM Tris/HCl at 25° C., 100 mM NaCl, 0.01% Tween-20, 1 μM Zn, 0.025% BSA). […] The rat NEP enzyme preparation was used at a concentration that yielded quantitative proteolysis of 3 μM of Mca-RRL within 20 minutes at room temperature.
Assays were started by adding 25 μL of enzyme to 12.5 μL of test compound at 12 concentrations (10 μM to 20 pM). […] Plates were read on a fluorometer with excitation and emission wavelengths set to 320 nm and 405 nm, respectively. […]

Assay [2] concerns the target T2, human AT1 receptor (Homo sapiens, UniProt P30556).
T2 construct: expressed in transfected cells; membranes
T2 sequence (P30556 1-359): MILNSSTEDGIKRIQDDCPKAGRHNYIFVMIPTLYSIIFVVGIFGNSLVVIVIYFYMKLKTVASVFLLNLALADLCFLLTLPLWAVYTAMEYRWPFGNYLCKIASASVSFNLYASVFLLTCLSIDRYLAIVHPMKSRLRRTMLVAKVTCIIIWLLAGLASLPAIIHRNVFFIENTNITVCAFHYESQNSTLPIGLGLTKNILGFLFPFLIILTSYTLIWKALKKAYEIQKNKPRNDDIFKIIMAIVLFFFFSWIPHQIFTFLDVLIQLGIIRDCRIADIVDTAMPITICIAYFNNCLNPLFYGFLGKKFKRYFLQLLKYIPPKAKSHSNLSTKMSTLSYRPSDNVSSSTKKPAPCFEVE
The experiment in a line: AT1 radioligand binding assay (Assay 1). Particulars: displacement of [Eu]AngII, membranes of CHO-K1 cells expressing human AT1 receptor; read-out: pKi at the AT1 receptor (converted). As to the method:
These in vitro assays were used to assess the ability of test compounds to bind to the AT1 and the AT2 receptors.
Membrane Preparation From Cells Expressing Human AT1 or AT2 Receptors
Chinese hamster ovary (CHO-K^1) derived cell lines stably expressing the cloned human AT1 or AT2 receptors, respectively, were grown in HAM's-F12 medium supplemented with 10% fetal bovine serum, 10 μg/ml penicillin/streptomycin, and 500 μg/ml geneticin in a 5% CO2 humidified incubator at 37° C. AT2 receptor expressing cells were grown in the additional presence of 100 nM PD123,319 (AT2 antagonist). When cultures reached 80-95% confluence, the cells were washed thoroughly in PBS and lifted with 5 mM EDTA. Cells were pelleted by centrifugation and snap frozen in MeOH-dry ice and stored at −80° C. until further use.
For membrane preparation, cell pellets were resuspended in lysis buffer (25 mM Tris/HCl pH 7.5 at 4° C., 1 mM EDTA, and one tablet of Complete Protease Inhibitor Cocktail Tablets with 2 mM EDTA per 50 mL buffer (Roche cat.#1697498, Roche Molecular Biochemicals, Indianapolis, Ind.)) and homogenized using a tight-fitting Dounce glass homogenizer (10 strokes) on ice. The homogenate was centrifuged at 1000×g, the supernatant was collected and centrifuged at 20,000×g. […] Protein concentration of the membrane suspension was determined by the method described in Bradford (1976) Anal Biochem. 72:248-54. […]

T1 sequence (P08473 52-750 limits assumed): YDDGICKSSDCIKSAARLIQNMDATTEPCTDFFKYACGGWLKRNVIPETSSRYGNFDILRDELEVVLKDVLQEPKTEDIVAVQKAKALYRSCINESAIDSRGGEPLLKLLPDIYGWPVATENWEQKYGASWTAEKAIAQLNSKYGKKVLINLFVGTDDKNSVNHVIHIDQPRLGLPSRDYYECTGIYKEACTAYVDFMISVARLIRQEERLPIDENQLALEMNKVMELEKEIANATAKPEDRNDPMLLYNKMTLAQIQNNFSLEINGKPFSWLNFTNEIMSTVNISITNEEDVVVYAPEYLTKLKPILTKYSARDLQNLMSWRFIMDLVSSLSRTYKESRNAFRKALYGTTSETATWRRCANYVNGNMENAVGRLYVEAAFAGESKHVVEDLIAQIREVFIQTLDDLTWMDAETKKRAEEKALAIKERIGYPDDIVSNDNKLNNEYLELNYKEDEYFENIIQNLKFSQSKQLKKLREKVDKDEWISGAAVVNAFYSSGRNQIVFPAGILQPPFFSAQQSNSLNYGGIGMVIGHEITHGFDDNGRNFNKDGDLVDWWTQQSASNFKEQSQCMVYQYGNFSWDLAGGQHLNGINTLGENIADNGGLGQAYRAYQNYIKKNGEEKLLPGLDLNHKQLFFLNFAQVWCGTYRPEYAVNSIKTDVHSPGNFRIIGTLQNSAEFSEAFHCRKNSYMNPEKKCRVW

As for `CCCc1nc2c(C)cc(C(=O)N[C@@H](CC(=O)NO)Cc3ccccc3)cc2n1Cc1ccc(-c2ccccc2C(=O)O)cc1` [Example 1, 4′-[6-((R)-1-Benzyl-2-hydroxycarbamoylethylcarbamoyl)-4-methyl-2-propylbenzoimidazol-1-ylmethyl]biphenyl-2-carboxylic Acid], the IC50 in assay [1] was ≤ 0.1 µM. The Ki in assay [2] is < 0.1 µM.

(Values after patent US8637676B2, “Dual-acting benzoimidazole antihypertensive agents” (Theravance, Inc., priority 2007, dated 2014).)
